# Measurements as given in patent publication US6410558B1, “Fungicides for the control of take-all disease of plants” (Monsanto Technology LLC, priority 1991, dated 2002).
# System: Gaeumannomyces graminis var. tritici (Ggt)
# Experiment: In vitro Assay: mycelial growth of Ggt on minimal media agar plates containing test compound
# Type: cell-based
# Settings: Gaeumannomyces graminis, dark, 19-20° C., 4 to 5 days, diameter of mycelial growth; for inhibition at 0.1 ppm: 0.1 ppm in minimal media agar, read-out: In vitro (ppm) 0.1, Percent Inhibition; for inhibition at 1 ppm: 1 ppm in minimal media agar, read-out: In vitro (ppm) 1, Percent Inhibition; for inhibition at 10 ppm: 10 ppm in minimal media agar, read-out: In vitro (ppm) 10, Percent Inhibition
# Summary of the method: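 Ggt mycelial diameter read after 4 to 5 days in darkness at 19-20° C, from three 4-mm plugs placed on Czapek Dox minimal agar containing test compound delivered in acetone. Inhibition expressed as percent versus untreated plates, plug size (4 mm) subtracted from both.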
smiles,measurement,value
"CCCCCCCC[Si](C)(C)c1cccc(Cl)c1C(=O)NCC [Example 182, 2-Chloro-6-(dimethyloctylsilyl)-N-ethylbenzamide]",inhibition at 0.1 ppm,30%
same,inhibition at 1 ppm,58%
same,inhibition at 10 ppm,73%
"CCNC(=O)c1cc(N(C)C)ccc1[Si](C)(C)C [Example 226, 5-(Dimethylamino)-N-ethyl-2-(trimethylsilyl)benzamide]",inhibition at 0.1 ppm,32%
same,inhibition at 1 ppm,91%
same,inhibition at 10 ppm,100%
"CCNC(=O)c1c(Cl)cccc1[Si](C)(C)C1CCCCC1 [Example 181, 2-Chloro-6-(cyclohexyldimethylsilyl)-N-ethylbenzamide]",inhibition at 0.1 ppm,12%
same,inhibition at 1 ppm,33%
same,inhibition at 10 ppm,58%
"CCNC(=O)c1sc(I)cc1[Si](C)(C)C [Example 257, N-Ethyl-5-iodo-3-(trimethylsilyl)-2-thiophenecarboxamide]",inhibition at 0.1 ppm,3%
same,inhibition at 1 ppm,23%
same,inhibition at 10 ppm,100%
"CCNC(=O)c1c([Si](C)(C)C)ccc(S(C)(=O)=O)c1Cl [Example 238, 2-Chloro-N-ethyl-3-(methylsulfonyl)-6-(trimethylsilyl)benzamide]",inhibition at 0.1 ppm,< 0%
same,inhibition at 1 ppm,< 0%
same,inhibition at 10 ppm,72%
"C=Cc1ccc([Si](C)(C)C)c(C(=O)NCC)c1Cl [Example 277, 2-Chloro-3-ethenyl-N-ethyl-6-(trimethylsilyl)benzamide]",inhibition at 0.1 ppm,69%
same,inhibition at 1 ppm,81%
same,inhibition at 10 ppm,94%
"CC(CO)NC(=O)c1c(Cl)cccc1[Si](C)(C)C (stereo not drawn) [Example 154, 2-Chloro-N-(2-hydroxy-1-methylethyl)-6-(trimethylsilyl)benzamide]",inhibition at 0.1 ppm,< 0%
same,inhibition at 1 ppm,< 0%
same,inhibition at 10 ppm,69%
"COCCNC(=O)c1c(Cl)cccc1[Si](C)(C)C [Example 146, 2-Chloro-N-(2-methoxyethyl)-6-(trimethylsilyl)benzamide]",inhibition at 0.1 ppm,14%
same,inhibition at 1 ppm,65%
same,inhibition at 10 ppm,84%
"CCNC(=O)c1c(Br)ccc(OC)c1[Si](C)(C)C [Example 236, 6-Bromo-N-ethyl-3-methoxy-2-(trimethylsilyl)benzamide]",inhibition at 0.1 ppm,< 0%
same,inhibition at 1 ppm,68%
same,inhibition at 10 ppm,86%
"CCN(CSC)C(=O)c1c(Cl)cccc1[Si](C)(C)C [Example 279, 2-Chloro-N-ethyl-N-[(methylthio)methyl]-6-(trimethylsilyl)benzamide]",inhibition at 0.1 ppm,< 0%
same,inhibition at 1 ppm,< 0%
same,inhibition at 10 ppm,47%
"CCN(Cc1ccco1)C(=O)c1c(Cl)cccc1[Si](C)(C)C [Example 125, 2-Chloro-N-ethyl-N-(2-furylmethyl)-6-(trimethylsilyl)benzamide]",inhibition at 0.1 ppm,< 0%
same,inhibition at 1 ppm,< 0%
same,inhibition at 10 ppm,89%
"CCNC(=O)C1=CSC(Cl)N1[Si](C)(C)C (stereo not drawn) [Example 283, 2-Chloro-N-ethyl-3-(trimethylsilyl)-4-thiazolecarboxamide]",inhibition at 0.1 ppm,< 0%
same,inhibition at 1 ppm,3%
same,inhibition at 10 ppm,42%
"CC(C)c1ccccc1NC(=O)c1c(Cl)cccc1[Si](C)(C)C [Example 156, 2-Chloro-N-[2-(1-methylethyl)phenyl]-6-(trimethylsilyl)benzamide]",inhibition at 0.1 ppm,9%
same,inhibition at 1 ppm,33%
same,inhibition at 10 ppm,72%
"C[Si](C)(C)c1cccc(Cl)c1C(=O)NCc1ccc(C(F)(F)F)cc1 [Example 102, 2-Chloro-N-[[4-(trifluoromethyl)phenyl]-methyl]-6-(trimethylsilyl)-benzamide]",inhibition at 0.1 ppm,28%
same,inhibition at 1 ppm,52%
same,inhibition at 10 ppm,28%
"CC(C)N(O)C(=O)c1sc(Cl)cc1[Si](C)(C)C [Example 287, 5-Chloro-N-hydroxy-N-(1-methylethyl)-3-(trimethylsilyl)-2-thiophenecarboxamide]",inhibition at 0.1 ppm,64%
same,inhibition at 1 ppm,71%
same,inhibition at 10 ppm,78%
"CC(NC(=O)c1c(Cl)cccc1[Si](C)(C)C)c1ccccc1 (stereo not drawn) [Example 161, 2-Chloro-N-(1-phenylethyl)-6-(trimethylsilyl)benzamide]",inhibition at 0.1 ppm,22%
same,inhibition at 1 ppm,17%
same,inhibition at 10 ppm,61%
"CCN(CC)C(=O)c1c([Si](C)(C)C)ccc(F)c1Cl [Example 88, N,N-Diethyl-2-chloro-3-fluoro-6-(trimethylsilyl)benzamide]",inhibition at 0.1 ppm,< 0%
same,inhibition at 1 ppm,< 0%
same,inhibition at 10 ppm,73%
"CCc1ccc([Si](C)(C)C)c(C(=O)N(CC)CC)c1Cl [Example 85, N,N-Diethyl-2-chloro-3-ethyl-6-(trimethylsilyl)benzamide]",inhibition at 0.1 ppm,7%
same,inhibition at 1 ppm,7%
same,inhibition at 10 ppm,59%
"CCNC(=O)c1c(Br)csc1[Si](C)(C)C [Example 267, 4-Bromo-N-ethyl-2-(trimethylsilyl)-3-thiophenecarboxamide]",inhibition at 0.1 ppm,18%
same,inhibition at 1 ppm,64%
same,inhibition at 10 ppm,61%
"CCNC(=O)c1c(Cl)cccc1N(C)C(C)(C)C [Example 190, 2-Chloro-6-[(1,1-dimethylethyl)methylamino]-N-ethylbenzamide]",inhibition at 0.1 ppm,24%
same,inhibition at 1 ppm,76%
same,inhibition at 10 ppm,80%
"C[Si](C)(C)c1cccc(Cl)c1C(=O)NCc1ccccc1 [Example 31, 2-Chloro-N-(phenylmethyl)-6-(trimethylsilyl)benzamide]",inhibition at 0.1 ppm,< 0%
same,inhibition at 1 ppm,4%
same,inhibition at 10 ppm,96%
"CCNC(=O)c1c(Cl)cccc1-c1ccccc1C [Example 72, 3-Chloro-N-ethyl-2′-methyl-[1,1′-biphenyl]-2-carboxamide]",inhibition at 0.1 ppm,< 0%
same,inhibition at 1 ppm,59%
same,inhibition at 10 ppm,69%
"CCNC(=O)c1oc([Si](C)(C)C)cc1[Si](C)(C)C [Example 251, N-Ethyl-3,5-bis(trimethylsilyl)-2-furancarboxamide]",inhibition at 0.1 ppm,3%
same,inhibition at 1 ppm,36%
same,inhibition at 10 ppm,97%
"C#CCNC(=O)c1c(Cl)cccc1[Si](C)(C)C [Example 108, 2-Chloro-N-(2-propynyl)-6-(trimethylsilyl)benzamide]",inhibition at 0.1 ppm,90%
same,inhibition at 1 ppm,86%
same,inhibition at 10 ppm,97%
"C=C(C)CNC(=O)c1c(Cl)cccc1[Si](C)(C)C [Example 147, 2-Chloro-N-(2-methyl-2-propenyl)-6-(trimethylsilyl)benzamide]",inhibition at 0.1 ppm,< 0%
same,inhibition at 1 ppm,< 0%
same,inhibition at 10 ppm,58%
"CCNC(=O)c1c(F)cccc1S(=O)(=O)C(C)(C)C [Example 280, 2-[(1,1-Dimethylethyl)sulfonyl]-N-ethyl-6-fluorobenzamide]",inhibition at 0.1 ppm,24%
same,inhibition at 1 ppm,21%
same,inhibition at 10 ppm,38%
"C[Si](C)(C)c1cccc(Cl)c1C(=O)NCc1cccs1 [Example 138, 2-Chloro-N-(2-thienylmethyl)-6-(trimethylsilyl)benzamide]",inhibition at 0.1 ppm,14%
same,inhibition at 1 ppm,36%
same,inhibition at 10 ppm,97%
"CCN(CC)C(=O)c1c(Cl)cc(C)cc1[Si](C)(C)C [Example 59, N,N-Diethyl-2-chloro-4-methyl-6-(trimethylsilyl)benzamide]",inhibition at 0.1 ppm,6%
same,inhibition at 1 ppm,< 0%
same,inhibition at 10 ppm,26%
"CCN(CC)C(=O)c1c([Si](C)(C)C)ccc(Cl)c1Cl [Example 84, N,N-Diethyl-2,3-dichloro-6-(trimethylsilyl)benzamide]",inhibition at 0.1 ppm,< 0%
same,inhibition at 1 ppm,66%
same,inhibition at 10 ppm,100%
"CCNC(=O)c1c([Si](C)(C)C)ccc(Cl)c1Cl [Example 203, 2,3-Dichloro-N-ethyl-6-(trimethylsilyl)benzamide]",inhibition at 0.1 ppm,79%
same,inhibition at 1 ppm,84%
same,inhibition at 10 ppm,91%
"CCN(CO)C(=O)c1c(C)cccc1[Si](C)(C)C [Example 143, N-Ethyl-N-(hydroxymethyl)-2-methyl-6-(trimethylsilyl)benzamide]",inhibition at 0.1 ppm,5%
same,inhibition at 1 ppm,13%
same,inhibition at 10 ppm,74%
"CCNC(=S)c1c(Cl)cccc1[Si](C)(C)C [Example 76, 2-Chloro-N-ethyl-6-(trimethylsilyl)thiobenzamide]",inhibition at 0.1 ppm,< 0%
same,inhibition at 1 ppm,45%
same,inhibition at 10 ppm,79%
"CCNC(=O)c1c(Cl)ccc(N)c1[Si](C)(C)C [Example 233, 3-Amino-6-chloro-N-ethyl-2-(trimethylsilyl)benzamide]",inhibition at 0.1 ppm,28%
same,inhibition at 1 ppm,24%
same,inhibition at 10 ppm,76%
"CCNC(=O)c1c(F)cccc1-c1ccccc1C [Example 94, N-Ethyl-2-fluoro-6-(2-methylphenyl)benzamide]",inhibition at 0.1 ppm,9%
same,inhibition at 1 ppm,63%
same,inhibition at 10 ppm,86%
"CCNC(=O)c1c(Cl)cccc1[Si](C)(C)C(C)(C)C [Example 185, 2-Chloro-6-[(1,1-dimethylethyl)dimethylsilyl]-N-ethylbenzamide]",inhibition at 0.1 ppm,48%
same,inhibition at 1 ppm,56%
same,inhibition at 10 ppm,72%
"CCNC(=O)c1c(Cl)cc(C(C)(C)C)cc1[Si](C)(C)C [Example 235, 2-Chloro-4-(1,1-dimethylethyl)-N-ethyl-6-(trimethylsilyl)benzamide]",inhibition at 0.1 ppm,3%
same,inhibition at 1 ppm,< 0%
same,inhibition at 10 ppm,70%
"CCN(COC)C(=O)c1c(C)cccc1[Si](C)(C)C [Example 127, N-Ethyl-N-(methoxymethyl)-2-methyl-6-(trimethylsilyl)benzamide]",inhibition at 0.1 ppm,< 0%
same,inhibition at 1 ppm,21%
same,inhibition at 10 ppm,74%
